Assays:
THP-1 cells = assay: CCK-8 cell viability, THP-1 cells; assay type: cell-based; details: THP-1, 6 hours with LPS 5 μg/mL or TNF-α 10 ng/mL; VR23 3 μM, BTZ 6 nM, CFZ 1 nM, DEX 2 μM
Protocol: Dunnett's test was performed to assess if there are significant differences in cell viability compared to the non-treatment control group. The values presented are mean±SEM (n=3).
The CCK-8 assay was used to count viable cells under the various treatment conditions. Briefly, cells were cultured in 11 columns of a 96-well clustered plate, with 5,000 cells in 100 μL of culture medium per well, excluding one column for a media-only control. The plate was incubated overnight at 37° C. in the humidified conditions, followed by treatment with test compounds diluted in the culture medium (10 μL). Each column was treated with a different condition so that each treatment could have 8 repeats. […] The absorbance was measured using an automatic plate reader (Synergy H4 Hybrid Multi-Mode Microplate Reader, BioTek, Montreal, Canada) at 450 nm wavelength. The cell viability of each treatment sample was determined by using the following equation (%)=(Abstrtmt-Absmedia)/(AbsuT-Absmedia)*100, where Abstrtmt is the absorbance value of cells with the various treatment conditions; Absmedia is the absorbance of the well containing media only; AbsuT is the absorbance of the wells with untreated cells. […]

[1] = tested on: SW-982 synovial cell line; assay: Sulforhodamine B (SRB) assay, IC50 on SW-982 cells; assay type: cell-based; details: Homo sapiens, SW982, 48 h
Protocol: (§1) The sulforhodamine B (SRB) assay^21 was used to determine the drug concentration that half of the cell growth/viability is inhibited (IC50). Cells were cultured in 96-well plates, with 5,000 cells in 100 μL of culture medium per well. The rest of the protocol was the same as described previously^22,23.
(§2) Data shown in Table 1 are IC50 values of VR23 and other compounds, which were determined using sulforhodamine B (SRB) assays on immunologically relevant cells (THP-1, SW-982 and PBMC). […] Two well-known proteasome inhibitors, BTZ and CFZ, were included for comparison since VR23 is also a proteasome inhibitor, albeit targeting different subunits^2. The widely used anti-inflammatory DEX was included, also for comparison.
(§3) THP-1, SW982 and PBMC cells (5,000 cells/well) were treated with each compound for 48 hours. The IC50, the drug concentration reducing cell growth/viability by 50%, was determined by a dose-response four-parameter curve (generated with GraphPad Prism V. 4.02) formed by 10 two-fold dilutions (n=3).

mouse organs / tumor = details: cited from earlier work
[2] = tested on: human fibroblast-like synoviocytes from healthy donors (HFLS-N); assay: Viability test, HFLS-N cells; assay type: cell-based; details: 6 hours, IL-1β 10 ng/mL, VR23 2.5-10 μM
Protocol: The values presented are the mean±SEM (n=3).
The CCK-8 assay was used to count viable cells under the various treatment conditions. Briefly, cells were cultured in 11 columns of a 96-well clustered plate, with 5,000 cells in 100 μL of culture medium per well, excluding one column for a media-only control. The plate was incubated overnight at 37° C. in the humidified conditions, followed by treatment with test compounds diluted in the culture medium (10 μL). Each column was treated with a different condition so that each treatment could have 8 repeats. […] The absorbance was measured using an automatic plate reader (Synergy H4 Hybrid Multi-Mode Microplate Reader, BioTek, Montreal, Canada) at 450 nm wavelength. The cell viability of each treatment sample was determined by using the following equation (%)=(Abstrtmt-Absmedia)/(AbsuT-Absmedia)*100, where Abstrtmt is the absorbance value of cells with the various treatment conditions; Absmedia is the absorbance of the well containing media only; AbsuT is the absorbance of the wells with untreated cells.
This finding was extended to human cells relevant to autoimmune diseases. […] Cytokine levels in cell culture supernatants were determined by a single-analyte ELISA. […] The cytokine secretion was measured in cell culture supernatants by a single-analyte ELISA.

[3] = tested on: IL-6 secretion in HFLS-RA cells; assay: IL-6 secretion in stimulated HFLS-RA cells (ELISA); assay type: cell-based, human; details: 6 hours
Protocol: The mean±SEM (n=3) values were determined by a Dunnett's test.
(§4) The values presented are the mean±SEM (n=2).
(§5) The enzyme-linked immunosorbent assay (ELISA) is a quantitative measurement based on sandwich-based enzyme linking, using a protein-specific capture antibody to determine the levels of single or multiple chemokines and cytokines.
This finding was extended to human cells relevant to autoimmune diseases. Human fibroblast-like synoviocytes (HFLS) are present in the synovial fluid of joint capsules and produce harmful molecules that contribute to joint destruction and the exacerbation of the disease in rheumatoid arthritis patients. […] The cells were then stimulated with IL-1β (FIG. 16) or LPS (FIG. 17), in the absence (control; IL-1β only) or presence of VR23 or HCQ. HCQ was included for comparison because it is often used to treat rheumatoid arthritis. […] For “VR23 only” samples, 5 μM VR23 was used. Fifty thousand HFLS cells per mL were used for the experiment. Cytokine levels in cell culture supernatants were determined by a single-analyte ELISA. […] Fifty thousand HFLS cells per mL were used for the experiment. The cytokine secretion was measured in cell culture supernatants by a single-analyte ELISA.

THP-1 monocytic cells = assay: Sulforhodamine B (SRB) assay, IC50 on THP-1 cells; assay type: cell-based, human
Protocol: as §1, §2, §3

[4] = tested on: IL-6 and TNF-α secretion in human PBMC; assay: IL-6 and TNF-α in PHA-p-stimulated human PBMC (ELISA); assay type: cell-based; details: PHA-p 10 μg/mL, 6 hours
Protocol: as §4, §5
Data in FIG. 14 show the levels of IL-6 (upper plot) and TNF-α (lower plot) in human PBMC (1×10^6/mL cells) stimulated with 10 μg/mL phytohemagglutinin-p (PHA-p) (10 μg/mL) for 6 hours, in the absence (control) or presence of varying concentrations of VR23 (0.38, 0.75, 1.5, 3 or 6 μM) or BTZ (6.25, 12.5, 25 or 50 nM). The measurement was carried out with a single-analyte ELISA.

## O=[N+]([O-])c1ccc(S(=O)(=O)N2CCN(c3ccnc4cc(Cl)ccc34)CC2)c([N+](=O)[O-])c1 [VR23, 7-chloro-4-(4-(2,4-dinitrophenylsulfonyl)piperazin-1-yl)quinoline]
THP-1 cells
  cell viability (CCK-8): did not significantly differ from the untreated cells
[1]
  IC50: 4330 ± 700 nM
Mouse organs / tumor; animal-based studies
  anti-tumor activity: strong anti-tumor activity
  toxicity to mouse organs: without any notable toxic side effects to mouse organs
Mouse organs / tumor; used in combination with paclitaxel (Tax)
  toxic side effects of paclitaxel in combination: reduces toxic side effects caused by paclitaxel
[2]
  cell viability: none of the conditions examined significantly affected the viability
[3]; HFLS-RA, IL-1β 10 ng/mL, VR23 2.5-10 μM, HCQ 15 or 30 μM
  IL-6 secretion, dose dependence: decreases in a dose dependent manner
[3]; HFLS-RA, LPS 100 ng/mL, 5 or 10 μM
  secretion of IL-6: decreased substantially
[3]; IL-1β 10 ng/mL, VR23 5 μM
  level of IL-6 secretion, HFLS-RA versus HFLS-N: reduces the level of IL-6 secretion more effectively on HFLS-RA than HFLS-N
[3]; synovial cells from rheumatoid arthritis patients, IL-1β or LPS
  IL-6 reduction, 5 μM VR23 versus 30 μM HCQ: significantly more effective
THP-1 monocytic cells; 48 hours
  IC50: 2580 ± 500 nM
THP-1 monocytic cells; Homo sapiens, THP-1, 48 h
  IC50: 3000 nM
[4]; VR23 1.5 μM, BTZ 6 nM
  PHA-induced IL-6: completely prevented
[4]; VR23 3.0 μM, BTZ 4× the IC50 dose
  PHA-induced TNF-α: completely prevented
[4]; VR23 0.38-6 μM
  cytokine secretion (IL-6, TNF-α), dose dependence: decreases in a dose dependent manner

— US11357774B2, “Use of a quinoline sulfonyl compound for treatment of inflammation, inflammatory disorders, autoimmune disorders and malaria” (priority 2019, dated 2022)
